Values of other authors as cited in PubChem BioAssay AID1259409 (Chemical Carcinogenesis Research Information System (CCRIS), 2018).
Where “and” joins values, the source holds several entries; their conditions need not be identical. Equal entries are not always repeated.

Tested on: rodent chemically induced tumor inhibition, incidence and multiplicity
Assay: CCRIS tumor inhibitor studies
Conditions: Carcinogen: NONE USED, Route [Inhibitor]: ORAL, Promoter: NONE USED

CC(N)Cc1ccccc1 (stereo not given)
tumour outcome (control, treated, inhibition, significance) (Dose [Inhibitor]: 0, 20 PPM IN FEED FOR 103 WK (STUDY DURATION: 2 YR), Species: MOUSE, Strain/Sex: B6C3F1/FEMALE, Target Tissue: Type of Lesion: HARDERIAN GLAND: ADENOMA): 5/50 (10%), 2/50 (4%), 60%, not calculated | tumour outcome (control, treated, inhibition, significance) (Dose [Inhibitor]: 0, 20 PPM IN FEED FOR 103 WK (STUDY DURATION: 2 YR), Species: MOUSE, Strain/Sex: B6C3F1/FEMALE, Target Tissue: Type of Lesion: LIVER: ADENOMA): 5/50 (10%), 1/50 (2%), 80%, not calculated | tumour outcome (control, treated, inhibition, significance) (Dose [Inhibitor]: 0, 20 PPM IN FEED FOR 103 WK (STUDY DURATION: 2 YR), Species: MOUSE, Strain/Sex: B6C3F1/FEMALE, Target Tissue: Type of Lesion: LUNG: ADENOMA OR CARCINOMA): 8/50 (16%), 6/50 (12%), 25%, not calculated | tumour outcome (control, treated, inhibition, significance) (Dose [Inhibitor]: 0, 20 PPM IN FEED FOR 103 WK (STUDY DURATION: 2 YR), Species: MOUSE, Strain/Sex: B6C3F1/FEMALE, Target Tissue: Type of Lesion: LUNG: ADENOMA): 7/50 (14%), 4/50 (8%), 43%, not calculated | tumour outcome (control, treated, inhibition, significance) (Dose [Inhibitor]: 0, 20 PPM IN FEED FOR 103 WK (STUDY DURATION: 2 YR), Species: MOUSE, Strain/Sex: B6C3F1/MALE, Target Tissue: Type of Lesion: HARDERIAN GLAND: ADENOMA): 4/50 (8%), 2/50 (4%), 50%, not calculated | tumour outcome (control, treated, inhibition, significance) (Dose [Inhibitor]: 0, 20 PPM IN FEED FOR 103 WK (STUDY DURATION: 2 YR), Species: MOUSE, Strain/Sex: B6C3F1/MALE, Target Tissue: Type of Lesion: LIVER: ADENOMA OR CARCINOMA): 14/50 (28%), 12/50 (24%), 15%, not calculated | tumour outcome (control, treated, inhibition, significance) (Dose [Inhibitor]: 0, 20 PPM IN FEED FOR 103 WK (STUDY DURATION: 2 YR), Species: MOUSE, Strain/Sex: B6C3F1/MALE, Target Tissue: Type of Lesion: LIVER: ADENOMA): 10/50 (20%), 7/50 (14%), 30%, not calculated | tumour outcome (control, treated, inhibition, significance) (Dose [Inhibitor]: 0, 20 PPM IN FEED FOR 103 WK (STUDY DURATION: 2 YR), Species: MOUSE, Strain/Sex: B6C3F1/MALE, Target Tissue: Type of Lesion: LIVER: CARCINOMA): 4/50 (8%), 6/50 (12%), -50%, not calculated | tumour outcome (control, treated, inhibition, significance) (Dose [Inhibitor]: 0, 20 PPM IN FEED FOR 103 WK (STUDY DURATION: 2 YR), Species: MOUSE, Strain/Sex: B6C3F1/MALE, Target Tissue: Type of Lesion: LUNG: ADENOMA): 6/50 (12%), 2/50 (4%), 67%, not calculated | tumour outcome (control, treated, inhibition, significance) (Dose [Inhibitor]: 0, 20 PPM IN FEED FOR 103 WK (STUDY DURATION: 2 YR), Species: RAT, Strain/Sex: F344/FEMALE, Target Tissue: Type of Lesion: ANTERIOR PITUITARY GLAND: ADENOMA): 3/50 (62%), 24/48 (50%), 19%, not calculated | tumour outcome (control, treated, inhibition, significance) (Dose [Inhibitor]: 0, 20 PPM IN FEED FOR 103 WK (STUDY DURATION: 2 YR), Species: RAT, Strain/Sex: F344/FEMALE, Target Tissue: Type of Lesion: MAMMARY GLAND: FIBROADENOMA): 21/50 (42%), 11/50 (22%), 48%, not calculated | tumour outcome (control, treated, inhibition, significance) (Dose [Inhibitor]: 0, 20 PPM IN FEED FOR 103 WK (STUDY DURATION: 2 YR), Species: RAT, Strain/Sex: F344/FEMALE, Target Tissue: Type of Lesion: UTERUS: ENDOMETRIAL STROMA POLYP): 10/50 (20%), 6/50 (12%), 40%, not calculated | tumour outcome (control, treated, inhibition, significance) (Dose [Inhibitor]: 0, 20 PPM IN FEED FOR 103 WK (STUDY DURATION: 2 YR), Species: RAT, Strain/Sex: F344/MALE, Target Tissue: Type of Lesion: ADRENAL GLAND: PHEOCHROMOCYTOMA): 23/49 (47%), 15/44 (34%), 28%, not calculated | tumour outcome (control, treated, inhibition, significance) (Dose [Inhibitor]: 0, 20 PPM IN FEED FOR 103 WK (STUDY DURATION: 2 YR), Species: RAT, Strain/Sex: F344/MALE, Target Tissue: Type of Lesion: ANTERIOR PITUITARY GLAND: ADENOMA): 15/49 (31%), 15/48 (31%), 0%, not significant | tumour outcome (control, treated, inhibition, significance) (Dose [Inhibitor]: 0, 100 PPM IN FEED FOR 103 WK (STUDY DURATION: 2 YR), Species: MOUSE, Strain/Sex: B6C3F1/FEMALE, Target Tissue: Type of Lesion: ANTERIOR PITUITARY GLAND: ADENOMA): 12/49 (24%), 6/49 (12%), 50%, not calculated and 12/49 (24%), 1/46 (2%), 92%, p<0.01 | tumour outcome (control, treated, inhibition, significance) (Dose [Inhibitor]: 0, 100 PPM IN FEED FOR 103 WK (STUDY DURATION: 2 YR), Species: MOUSE, Strain/Sex: B6C3F1/FEMALE, Target Tissue: Type of Lesion: HARDERIAN GLAND: ADENOMA): 5/50 (10%), 0/47 (0%), 100%, p<0.05 | tumour outcome (control, treated, inhibition, significance) (Dose [Inhibitor]: 0, 100 PPM IN FEED FOR 103 WK (STUDY DURATION: 2 YR), Species: MOUSE, Strain/Sex: B6C3F1/FEMALE, Target Tissue: Type of Lesion: LUNG: ADENOMA OR CARCINOMA): 8/50 (16%), 1/47 (2%), 88%, p<0.01 | tumour outcome (control, treated, inhibition, significance) (Dose [Inhibitor]: 0, 100 PPM IN FEED FOR 103 WK (STUDY DURATION: 2 YR), Species: MOUSE, Strain/Sex: B6C3F1/FEMALE, Target Tissue: Type of Lesion: LUNG: ADENOMA): 7/50 (14%), 1/47 (2%), 86%, p<0.05 | tumour outcome (control, treated, inhibition, significance) (Dose [Inhibitor]: 0, 100 PPM IN FEED FOR 103 WK (STUDY DURATION: 2 YR), Species: MOUSE, Strain/Sex: B6C3F1/MALE, Target Tissue: Type of Lesion: LIVER: ADENOMA OR CARCINOMA): 14/50 (28%), 2/50 (4%), 86%, p<0.01 | tumour outcome (control, treated, inhibition, significance) (Dose [Inhibitor]: 0, 100 PPM IN FEED FOR 103 WK (STUDY DURATION: 2 YR), Species: MOUSE, Strain/Sex: B6C3F1/MALE, Target Tissue: Type of Lesion: LIVER: ADENOMA): 10/50 (20%), 1/50 (2%), 90%, p<0.01 | tumour outcome (control, treated, inhibition, significance) (Dose [Inhibitor]: 0, 100 PPM IN FEED FOR 103 WK (STUDY DURATION: 2 YR), Species: MOUSE, Strain/Sex: B6C3F1/MALE, Target Tissue: Type of Lesion: LIVER: CARCINOMA): 4/50 (8%), 1/50 (2%), 75%, not calculated | tumour outcome (control, treated, inhibition, significance) (Dose [Inhibitor]: 0, 100 PPM IN FEED FOR 103 WK (STUDY DURATION: 2 YR), Species: MOUSE, Strain/Sex: B6C3F1/MALE, Target Tissue: Type of Lesion: LUNG: ADENOMA): 6/50 (12%), 3/50 (6%), 50%, not calculated | tumour outcome (control, treated, inhibition, significance) (Dose [Inhibitor]: 0, 100 PPM IN FEED FOR 103 WK (STUDY DURATION: 2 YR), Species: RAT, Strain/Sex: F344/FEMALE, Target Tissue: Type of Lesion: ANTERIOR PITUITARY GLAND: ADENOMA): 31/50 (62%), 19/50 (38%), 39%, p<0.05 | tumour outcome (control, treated, inhibition, significance) (Dose [Inhibitor]: 0, 100 PPM IN FEED FOR 103 WK (STUDY DURATION: 2 YR), Species: RAT, Strain/Sex: F344/FEMALE, Target Tissue: Type of Lesion: MAMMARY GLAND: FIBROADENOMA): 21/50 (42%), 2/50 (4%), 90%, p<0.01 | tumour outcome (control, treated, inhibition, significance) (Dose [Inhibitor]: 0, 100 PPM IN FEED FOR 103 WK (STUDY DURATION: 2 YR), Species: RAT, Strain/Sex: F344/FEMALE, Target Tissue: Type of Lesion: UTERUS: ENDOMETRIAL STROMA POLYP): 10/50 (20%), 3/50 (6%), 70%, p<0.05 | tumour outcome (control, treated, inhibition, significance) (Dose [Inhibitor]: 0, 100 PPM IN FEED FOR 103 WK (STUDY DURATION: 2 YR), Species: RAT, Strain/Sex: F344/MALE, Target Tissue: Type of Lesion: ADRENAL GLAND: PHEOCHROMOCYTOMA): 23/49 (47%), 7/50 (14%), 70%, p<0.01 | tumour outcome (control, treated, inhibition, significance) (Dose [Inhibitor]: 0, 100 PPM IN FEED FOR 103 WK (STUDY DURATION: 2 YR), Species: RAT, Strain/Sex: F344/MALE, Target Tissue: Type of Lesion: ANTERIOR PITUITARY GLAND: ADENOMA): 15/49 (31%), 9/49 (18%), 42%, not calculated | tumour outcome (control, treated, inhibition, significance) (Dose [Inhibitor]: 0, 100 PPM IN FEED FOR 103 WK (STUDY DURATION; 2 YR), Dose [Inhibitor]: 0, 100 PPM IN FEED FOR 103 WK (STUDY DURATION; 2 YR), Species: MOUSE, Strain/Sex: B6C3F1/MALE, Target Tissue: Type of Lesion: HARDERIAN GLAND: ADENOMA): 4/50 (8%), 0/50 (0%), 100%, not calculated | tumour outcome (control, treated, inhibition, significance) (Dose [Inhibitor]: O, 20 PPM IN FEED FOR 103 WK (STUDY DURATION: 2 YR), Species: MOUSE, Strain/Sex: B6C3F1/MALE, Target Tissue: Type of Lesion: LUNG: ADENOMA OR CARCINOMA): 8/50 (16%), 3/50 (6%), 63%, not calculated | tumour outcome (control, treated, inhibition, significance) (Dose [Inhibitor]: O, 100 PPM IN FEED FOR 103 WK (STUDY DURATION: 2 YR), Species: MOUSE, Strain/Sex: B6C3F1/MALE, Target Tissue: Type of Lesion: LUNG: ADENOMA OR CARCINOMA): 8/50 (16%), 4/50 (8%), 50%, not calculated
